Source: ChEMBL document CHEMBL5665443, “Enzyme Inhibitor Single Concentration assay results for EUbOPEN Chemogenomics Library” (2024)

Legend:
[1] = target: N-glycosylase/DNA lyase (Homo sapiens) (UniProt O15527);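 further: OGG1 cleavage of a quenched duplex DNA oligonucleotide, coupled to APE1 for strand incision, read as fluorescence at 594 nm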
Description: Inhibition of OGG1 by quantifying inhibition of OGG1-mediated cleavage and dissociation of quenched duplex DNA oligonucleotides, measured as fluorescence at 594 nm. To generate a functional strand incision and increase turn-over this assay is coupled to APE1.

[2] = target: T1, Adenine DNA glycosylase (Homo sapiens) (UniProt Q9UIF7); conditions: Hit No;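 further: human MUTYH activity read as 594 nm fluorescence from cleavage and release of a quenched DNA duplex, coupled with APE1 for strand incision, lower signal meaning inhibition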
T1 sequence (whole entry): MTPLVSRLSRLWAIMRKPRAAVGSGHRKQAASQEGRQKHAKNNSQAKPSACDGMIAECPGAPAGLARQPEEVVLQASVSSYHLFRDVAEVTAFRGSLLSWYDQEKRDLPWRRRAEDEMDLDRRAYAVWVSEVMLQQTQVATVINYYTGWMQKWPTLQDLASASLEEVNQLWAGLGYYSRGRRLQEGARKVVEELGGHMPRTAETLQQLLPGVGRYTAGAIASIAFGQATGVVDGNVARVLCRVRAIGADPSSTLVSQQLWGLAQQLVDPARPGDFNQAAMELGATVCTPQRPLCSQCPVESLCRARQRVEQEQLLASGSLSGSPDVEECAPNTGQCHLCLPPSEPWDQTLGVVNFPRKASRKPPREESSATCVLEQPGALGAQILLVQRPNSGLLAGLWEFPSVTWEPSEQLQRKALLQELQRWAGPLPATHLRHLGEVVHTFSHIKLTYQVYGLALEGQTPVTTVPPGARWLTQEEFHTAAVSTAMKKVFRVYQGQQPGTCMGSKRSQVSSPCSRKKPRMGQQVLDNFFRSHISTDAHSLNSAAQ
Description: Inhibition of MUTYH by quantifying inhibition of MUTYH-mediated cleavage and dissociation of quenched duplex DNA oligonucleotides, measured as fluorescence at 594 nm. To generate a functional strand incision and increase turn-over this assay is coupled to APE1.

[3] = target: T2, Endonuclease III-like protein 1 (Homo sapiens) (UniProt P78549); conditions: Hit No;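 further: enzyme assay tracking NTHL1 cutting and release of a quenched double-stranded DNA oligo substrate, read as fluorescence at 594 nm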
T2 sequence (whole entry): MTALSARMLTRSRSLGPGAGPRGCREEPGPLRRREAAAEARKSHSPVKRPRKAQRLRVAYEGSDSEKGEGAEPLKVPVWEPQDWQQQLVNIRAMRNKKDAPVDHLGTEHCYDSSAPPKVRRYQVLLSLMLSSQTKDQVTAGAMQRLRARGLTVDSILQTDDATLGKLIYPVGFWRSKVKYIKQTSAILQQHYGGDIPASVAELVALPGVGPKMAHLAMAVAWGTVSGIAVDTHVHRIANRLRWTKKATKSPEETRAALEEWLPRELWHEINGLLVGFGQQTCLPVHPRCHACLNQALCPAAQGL
Description: Inhibition of NTHL1 by quantifying inhibition of NTHL1-mediated cleavage and dissociation of quenched duplex DNA oligonucleotides, measured as fluorescence at 594 nm.

[4] = target: Methyl-CpG-binding domain protein 4 (Homo sapiens) (UniProt O95243); conditions: Compound Concentration 10.0 uM, Hit No;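 further: MBD4 activity read as fluorescence at 594 nm from cleavage and release of a quenched duplex DNA oligonucleotide, with APE1 coupled to incise the strand and raise turnover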
Description: Inhibition of MBD4 by quantifying inhibition of MBD4-mediated cleavage and dissociation of quenched duplex DNA oligonucleotides, measured as fluorescence at 594 nm. To generate a functional strand incision and increase turn-over this assay is coupled to APE1.

[5] = target: Uracil-DNA glycosylase (Homo sapiens) (UniProt P13051); conditions: Hit No;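 further: UNG excision on a quenched double-stranded DNA oligo probe, with APE1 added for strand incision and turnover, read as fluorescence at 594 nm as strands separate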
Description: Inhibition of UNG by quantifying inhibition of UNG-mediated cleavage and dissociation of quenched duplex DNA oligonucleotides, measured as fluorescence at 594 nm. To generate a functional strand incision and increase turn-over this assay is coupled to APE1.

[6] = target: G/T mismatch-specific thymine DNA glycosylase (Homo sapiens) (UniProt Q13569); conditions: Hit No;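 further: human TDG cleavage of quenched duplex DNA oligonucleotides coupled to APE1, strand release read as fluorescence at 594 nm, inhibition of TDG activity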
Description: Inhibition of TDG by quantifying inhibition of TDG-mediated cleavage and dissociation of quenched duplex DNA oligonucleotides, measured as fluorescence at 594 nm. To generate a functional strand incision and increase turn-over this assay is coupled to APE1.

[7] = target: T3, Endonuclease 8-like 2 (Homo sapiens) (UniProt Q969S2);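 further: fluorescence at 594 nm reports NEIL2 cutting and release of a quenched double-stranded DNA oligo substrate, reduced signal read as inhibition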
T3 sequence (whole entry): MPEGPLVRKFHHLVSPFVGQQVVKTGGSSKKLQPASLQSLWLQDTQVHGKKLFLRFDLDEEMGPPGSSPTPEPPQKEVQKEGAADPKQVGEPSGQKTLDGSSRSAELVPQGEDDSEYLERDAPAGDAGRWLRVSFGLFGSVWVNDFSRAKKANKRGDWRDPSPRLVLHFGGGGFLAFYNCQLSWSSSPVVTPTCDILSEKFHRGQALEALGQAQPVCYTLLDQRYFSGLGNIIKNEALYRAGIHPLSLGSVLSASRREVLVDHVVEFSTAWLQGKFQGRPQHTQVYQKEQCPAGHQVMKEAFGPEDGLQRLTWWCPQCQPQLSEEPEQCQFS
Description: Inhibition of NEIL2 by quantifying inhibition of NEIL2-mediated cleavage and dissociation of quenched duplex DNA oligonucleotides, measured as fluorescence at 594 nm.

[8] = target: T4, Single-strand selective monofunctional uracil DNA glycosylase (Homo sapiens) (UniProt Q53HV7); conditions: Hit No;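 further: enzymatic SMUG1 assay coupled with APE1, reading fluorescence at 594 nm released when a quenched double-stranded DNA oligonucleotide substrate is cleaved and separated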
T4 sequence (whole entry): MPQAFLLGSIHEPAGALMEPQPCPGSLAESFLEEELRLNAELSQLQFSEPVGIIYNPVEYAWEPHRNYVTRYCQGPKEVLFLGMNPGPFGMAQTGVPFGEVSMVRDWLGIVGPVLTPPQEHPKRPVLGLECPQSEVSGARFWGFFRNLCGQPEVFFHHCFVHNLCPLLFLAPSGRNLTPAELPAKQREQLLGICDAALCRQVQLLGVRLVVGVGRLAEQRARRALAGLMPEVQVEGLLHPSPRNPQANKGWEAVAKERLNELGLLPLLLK
Description: Inhibition of SMUG1 by quantifying inhibition of SMUG1-mediated cleavage and dissociation of quenched duplex DNA oligonucleotides, measured as fluorescence at 594 nm. To generate a functional strand incision and increase turn-over this assay is coupled to APE1.

[9] = target: Endonuclease 8-like 1 (Homo sapiens) (UniProt Q96FI4); conditions: Hit No;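 further: fluorescence at 594 nm from quenched duplex DNA oligonucleotides released by NEIL1 cleavage and strand separation, reported as reduction of this enzyme activity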
Description: Inhibition of NEIL1 by quantifying inhibition of NEIL1-mediated cleavage and dissociation of quenched duplex DNA oligonucleotides, measured as fluorescence at 594 nm.

[10] = Compound Concentration 10.0 uM, Hit No
[11] = Compound Concentration 10.0 uM, Hit Yes
[12] = Compound Concentration 1.0 uM, Hit No

Methyl-CpG-binding domain protein 4 (Homo sapiens), sequence (O95243 whole entry, the tested form may be a part): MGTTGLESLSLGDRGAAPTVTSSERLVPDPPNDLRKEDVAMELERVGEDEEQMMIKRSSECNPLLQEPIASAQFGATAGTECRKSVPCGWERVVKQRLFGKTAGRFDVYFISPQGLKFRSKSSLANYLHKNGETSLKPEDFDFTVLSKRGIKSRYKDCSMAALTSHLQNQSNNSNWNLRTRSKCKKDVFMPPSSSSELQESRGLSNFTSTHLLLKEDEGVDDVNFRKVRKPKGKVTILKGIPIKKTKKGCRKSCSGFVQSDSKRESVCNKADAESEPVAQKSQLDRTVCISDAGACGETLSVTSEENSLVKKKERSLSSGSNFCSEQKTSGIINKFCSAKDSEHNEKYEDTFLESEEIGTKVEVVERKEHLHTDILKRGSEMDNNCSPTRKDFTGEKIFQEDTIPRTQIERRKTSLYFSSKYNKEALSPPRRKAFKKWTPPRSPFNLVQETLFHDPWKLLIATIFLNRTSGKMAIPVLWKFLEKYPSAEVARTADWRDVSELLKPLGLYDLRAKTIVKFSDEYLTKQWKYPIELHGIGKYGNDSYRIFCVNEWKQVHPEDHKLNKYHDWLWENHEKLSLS
Uracil-DNA glycosylase (Homo sapiens), sequence (P13051 whole entry): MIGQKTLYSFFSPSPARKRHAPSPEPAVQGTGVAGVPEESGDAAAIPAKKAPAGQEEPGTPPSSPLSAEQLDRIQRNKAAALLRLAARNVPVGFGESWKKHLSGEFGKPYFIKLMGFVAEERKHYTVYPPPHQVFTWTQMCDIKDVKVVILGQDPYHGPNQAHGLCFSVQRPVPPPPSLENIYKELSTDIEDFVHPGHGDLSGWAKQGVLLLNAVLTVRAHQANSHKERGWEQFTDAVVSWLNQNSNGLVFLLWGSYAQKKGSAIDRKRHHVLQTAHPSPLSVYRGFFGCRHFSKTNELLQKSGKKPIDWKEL
Endonuclease 8-like 1 (Homo sapiens), sequence (Q96FI4 whole entry): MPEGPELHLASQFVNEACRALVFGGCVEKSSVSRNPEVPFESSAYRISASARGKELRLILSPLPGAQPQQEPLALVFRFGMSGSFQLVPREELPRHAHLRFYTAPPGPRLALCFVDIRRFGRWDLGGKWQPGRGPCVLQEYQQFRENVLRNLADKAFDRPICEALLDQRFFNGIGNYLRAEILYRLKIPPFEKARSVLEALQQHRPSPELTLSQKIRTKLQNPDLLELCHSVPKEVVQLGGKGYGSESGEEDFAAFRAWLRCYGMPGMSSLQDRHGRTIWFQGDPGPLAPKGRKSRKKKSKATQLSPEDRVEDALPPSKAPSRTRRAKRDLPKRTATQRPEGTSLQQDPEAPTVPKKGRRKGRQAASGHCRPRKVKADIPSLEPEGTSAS
N-glycosylase/DNA lyase (Homo sapiens), sequence (O15527 whole entry): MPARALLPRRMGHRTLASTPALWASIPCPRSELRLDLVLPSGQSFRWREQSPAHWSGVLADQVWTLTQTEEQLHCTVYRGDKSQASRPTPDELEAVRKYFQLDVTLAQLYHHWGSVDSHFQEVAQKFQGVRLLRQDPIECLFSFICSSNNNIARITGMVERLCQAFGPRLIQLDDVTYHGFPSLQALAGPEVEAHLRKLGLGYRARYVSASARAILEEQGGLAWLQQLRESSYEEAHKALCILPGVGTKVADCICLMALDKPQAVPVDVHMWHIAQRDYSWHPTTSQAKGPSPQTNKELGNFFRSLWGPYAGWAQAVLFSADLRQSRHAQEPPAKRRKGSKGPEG
G/T mismatch-specific thymine DNA glycosylase (Homo sapiens), sequence (Q13569 whole entry): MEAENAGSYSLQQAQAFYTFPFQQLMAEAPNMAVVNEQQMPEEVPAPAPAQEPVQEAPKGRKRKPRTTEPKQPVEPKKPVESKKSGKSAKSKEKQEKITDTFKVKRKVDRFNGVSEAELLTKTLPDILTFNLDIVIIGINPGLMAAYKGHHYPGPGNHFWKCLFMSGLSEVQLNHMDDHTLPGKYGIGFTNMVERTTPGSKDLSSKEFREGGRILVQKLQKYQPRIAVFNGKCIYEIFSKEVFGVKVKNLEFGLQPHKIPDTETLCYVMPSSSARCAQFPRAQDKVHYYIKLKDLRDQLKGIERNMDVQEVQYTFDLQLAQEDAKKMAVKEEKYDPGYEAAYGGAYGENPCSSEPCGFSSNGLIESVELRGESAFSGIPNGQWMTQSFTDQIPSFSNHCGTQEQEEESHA

Compound | inhibition [1, 10] [%] | inhibition ([2]; Compound Concentration 10.0 uM) [%] | inhibition ([3]; Compound Concentration 10.0 uM) [%] | inhibition [4] [%] | inhibition ([5]; Compound Concentration 10.0 uM) [%] | inhibition ([6]; Compound Concentration 10.0 uM) [%] | inhibition [7, 11] [%] | inhibition ([8]; Compound Concentration 10.0 uM) [%] | inhibition ([9]; Compound Concentration 10.0 uM) [%] | inhibition [7, 10] [%] | inhibition [1, 12] [%] | inhibition ([2]; Compound Concentration 1.0 uM) [%] | inhibition ([3]; Compound Concentration 1.0 uM) [%] | inhibition ([8]; Compound Concentration 1.0 uM) [%] | inhibition ([5]; Compound Concentration 1.0 uM) [%] | inhibition ([9]; Compound Concentration 1.0 uM) [%] | inhibition ([6]; Compound Concentration 1.0 uM) [%] | inhibition [1, 11] [%] | inhibition [7, 12] [%]
c1ccc(N2CCN(Cc3nc4ccccc4[nH]3)CC2)nc1 | -5.49 | 2.22 | 0.934 | 29.2 | -4.15 | 29.5 |  |  |  |  |  |  |  |  |  |  |  |  | 
CC(C)NCC(O)COc1cccc2ccccc12 (stereo not given) |  | 3.6 | 13.7 |  | -6.12 | 5.22 | 35 | 3.41 | -0.797 |  |  |  |  |  |  |  |  |  | 
CCCCC(=O)N(Cc1ccc(-c2ccccc2-c2nnn[nH]2)cc1)[C@H](C(=O)O)C(C)C | -4.35 | 34.3 | 1.92 | -9.61 |  | 0.584 |  |  | 0.537 | 1.76 |  |  |  |  |  |  |  |  | 
CC#CC(=O)N1CCC[C@H]1c1nc(-c2ccc(C(=O)Nc3ccccn3)cc2)c2c(N)nccn12 | 1.98 | 0.794 | -7.58 | -0.914 | 4.65 | 55.9 |  |  |  |  |  |  |  |  |  |  |  |  | 
CC(C)(C)c1ccc2c(c1)CC[C@H]2NC(=O)Nc1cccc2[nH]ncc12 | -2.36 | -7.76 | 3.04 |  | -4.28 | -8.31 |  | 11.7 | 7.86 | -4.17 |  |  |  |  |  |  |  |  | 
Cc1cccc([C@H](C)c2c[nH]cn2)c1C | -7.75 | 5.65 | -4.67 |  |  | 18.4 |  | -5.51 | -5.1 | 7.25 |  |  |  |  |  |  |  |  | 
N[C@@H]1c2cccnc2[C@H](OC(=O)N2CCC(n3c(=O)[nH]c4ncccc43)CC2)CC[C@H]1c1cccc(F)c1F | -5.76 | -2.28 | -6.14 |  |  | 6.23 |  | -4.73 | -2.58 | 0.515 |  |  |  |  |  |  |  |  | 
COc1ccc(CN(CCN(C)C)c2ccccn2)cc1 | -6.42 | 4.88 | 21.7 | -9.78 |  | 2.93 |  |  | 2.61 | -3.23 |  |  |  |  |  |  |  |  | 
CNc1nc(Nc2cnn([C@H]3CCN(C4COC4)C[C@@H]3F)c2Cl)ncc1C(F)(F)F |  |  |  |  |  |  |  |  |  |  | -2.93 | -1.03 | -6.19 | 15 | 2.4 | -2.24 | 39.4 |  | 
Cc1nc(C#Cc2ccnc(Cl)c2)c(C)n1-c1ccc(OC(F)(F)F)cc1 | -0.162 | 14 | 7.05 |  | -8.09 | 20.9 |  | 5 | -9.4 | 5.26 |  |  |  |  |  |  |  |  | 
N#Cc1c(N)nc(SCc2csc(-c3ccc(Cl)cc3)n2)c(C#N)c1-c1ccc(OCCO)cc1 |  | 7.45 | 4.7 | -6.16 | -1.02 | 6.03 |  |  |  |  |  |  |  |  |  |  |  | 55.1 | 
CN1CCN(c2cc(-c3ccccc3)nc(N)n2)CC1 |  | -4.71 | 9.99 | -3.57 | -9.1 | 1.13 |  |  | -2.28 | 7 |  |  |  |  |  |  |  |  | 
Cn1cc(-c2[nH]c3cc(NC(=O)[C@H](N)C4CCCCC4)cc4c3c2C=NNC4=O)cn1 |  |  |  |  |  |  |  |  |  |  |  | -0.0556 | -0.61 | 19.2 | 0.598 | -1.18 | 43.2 |  | -5.15
O=C(O)c1cc(-c2ccc(C3CCNCC3)cc2)c2ccc(-c3ccc(C(F)(F)F)cc3)cc2c1 | -4.86 | 10.9 | 2.15 |  | 0.968 | 20.1 |  | -1.19 | -1.45 | 1.86 |  |  |  |  |  |  |  |  | 
CSCC[C@H](NC(=O)[C@H](Cc1ccccc1)NC(=O)[C@H](Cc1c[nH]cn1)NC(=O)CNC(=O)[C@@H](NC(=O)[C@H](C)NC(=O)[C@H](Cc1c[nH]c2ccccc12)NC(=O)[C@H](CC(C)C)NC(=O)[C@H](CC(N)=O)NC(=O)CN)[C@@H](C)O)C(N)=O |  | 11.4 | 8.82 | -1.83 | -8.29 | -7.68 |  |  | 10.5 | -6.21 |  |  |  |  |  |  |  |  | 
CNC(=O)Nc1ccc(-c2nc(N3CC4CCC(C3)O4)c3cnn(C4CCC5(CC4)OCCO5)c3n2)cc1 |  | 5.83 | 2.88 |  | 6.27 | 46.1 |  | 15.7 | 2.52 |  |  |  |  |  |  |  |  |  | 
N[C@@H](Cc1cc(I)c(Oc2ccc(O)c(I)c2)c(I)c1)C(=O)O | 4.51 | 10.3 | -3.92 | 68.9 | 5.16 | 102 |  |  | -7.26 |  |  |  |  |  |  |  |  |  | 
OCCn1cc(-c2cnc3nnn(Cc4ccc5ncccc5c4)c3n2)cn1 | -5.86 | 0.369 | -9.68 |  | -1.44 | 49.5 |  | 18.6 | 2.52 | -5.15 |  |  |  |  |  |  |  |  | 
CS(=O)(=O)NC[C@H]1CC[C@H](Nc2nc3c(s2)CCSc2ccccc2-3)CC1 | -8.83 | -5.74 | 34.9 |  | -8.36 | 2.85 |  | -4.83 | -5.25 | 8.25 |  |  |  |  |  |  |  |  | 
Cn1cnc2c(F)c(Nc3ccc(Br)cc3Cl)c(C(=O)NOCCO)cc21 |  | -2.18 | -8.28 |  | -1.17 | 39.7 |  | 16.2 | 11.5 |  |  |  |  |  |  |  |  |  | 
